Experimental data taken from patent US20240254119A1 (THIRD HARMONIC BIO, INC., priority 2022, published 2024).

What was measured:
[1] = Three time point assay for plasma, brain and testes distribution after oral dosing; format: in vivo, rat; details: for Brain concentration / Kp brain/plasma / Kp testes/plasma / Plasma concentration / Testes concentration: rat, oral dosing
Method in brief: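 Male SD rats received 10 mg/kg by oral gavage; plasma was sampled at one or more of 0.5, 2, 3, 5.3 and 7 h. PBS-perfused brain and testis were homogenized 1:9 in PBS (pH 7.4):MeOH 2:1, and compound levels were quantified by LC-MS/MS against calibration standards.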

MDR1 (MDR1-MDCKII cells) = target: T1, MDR1 (MDR1-MDCKII cells) (Homo sapiens, UniProt P08183); assay: Permeability in MDR1-MDCKII cells; format: in vitro ADME; details: for MDCKII-MDR1: Papp A-B: MDCKII-MDR1, apical to basolateral
T1 construct: host or cells: MDCKII (canine kidney) cells
Protocol: Exemplary compounds were tested for cell permeability in Caco-2, MDCKII-MDR1 and MDCKII-BCRP cell lines with efflux transporter engagement inferred from the efflux ratios determined. Procedures and results are described below. […] This feature of certain compounds is in part due to efflux transporter engagement. See, for instance, exemplary such compounds included in data tables below.
MDR1-MDCKII cells (obtained from Piet Borst at the Netherlands Cancer Institute) were seeded onto […] membranes (PET) in 96-well insert systems at 2.5×10^5 cells/mL until to 4-7 days for confluent cell monolayer formation.
Test compounds were diluted with the transport buffer (HBSS with 10 mM Hepes, pH7.4) from DMSO stock solution to a concentration of 2.00 μM (DMSO<1%) and applied to the apical or basolateral side of the cell monolayer. Permeation of the test compounds from A to B direction or B to A direction was determined in duplicate. Digoxin was tested at 10.0 μM from A to B direction or B to A direction as well, while nadolol and metoprolol were tested at […] in A to B direction in duplicate. The plate was incubated for 2.5 hours in CO2 incubator at 37±1° C., with 5% CO2 at saturated humidity without shaking. In addition, the efflux ratio of each compound was also determined. Test and reference compounds were quantified by LC-MS/MS analysis based on the peak area ratio of analyte/IS.
After transport assay, Lucifer yellow rejection assay are applied to determine the cell monolayer integrity. Buffers are removed from both apical and basolateral chambers, followed by the addition of 75 μL of 100 μM lucifer yellow in transport buffer and 250 μL transport buffer in apical and basolateral chambers, respectively. The plate is incubated for 30 minutes at 37° C. with 5% CO2 and saturated humidity without shaking. After 30 minutes incubation, 20 μL of lucifer yellow samples are taken from the apical sides, followed by the addition of 60 μL of Transport Buffer. And then 80 μL of lucifer yellow samples are taken from the basolateral sides. The relative fluorescence unit (RFU) of lucifer yellow is measured at 425/528 nm (excitation/emission) with an Envision plate reader.
The apparent permeability coefficient Papp (cm/s) was calculated using the equation: […]
Where dCr/dt is the cumulative concentration of compound in the receiver chamber as a function of time (μM/s); Vr is the solution volume in the receiver chamber (0.075 mL on the apical side, 0.25 mL on the basolateral side); A is the surface area for the transport, i.e. 0.0804 cm^2 for the area of the monolayer; C0 is the initial concentration in the donor chamber (μM). The efflux ratio was calculated using the equation: […]
Where Vd is the volume in the donor chambers (0.075 mL on the apical side, 0.25 mL on the basolateral side); Cd and Cr are the final concentrations of transport compound in donor and receiver chambers, respectively.

T1 sequence (P08183 whole entry): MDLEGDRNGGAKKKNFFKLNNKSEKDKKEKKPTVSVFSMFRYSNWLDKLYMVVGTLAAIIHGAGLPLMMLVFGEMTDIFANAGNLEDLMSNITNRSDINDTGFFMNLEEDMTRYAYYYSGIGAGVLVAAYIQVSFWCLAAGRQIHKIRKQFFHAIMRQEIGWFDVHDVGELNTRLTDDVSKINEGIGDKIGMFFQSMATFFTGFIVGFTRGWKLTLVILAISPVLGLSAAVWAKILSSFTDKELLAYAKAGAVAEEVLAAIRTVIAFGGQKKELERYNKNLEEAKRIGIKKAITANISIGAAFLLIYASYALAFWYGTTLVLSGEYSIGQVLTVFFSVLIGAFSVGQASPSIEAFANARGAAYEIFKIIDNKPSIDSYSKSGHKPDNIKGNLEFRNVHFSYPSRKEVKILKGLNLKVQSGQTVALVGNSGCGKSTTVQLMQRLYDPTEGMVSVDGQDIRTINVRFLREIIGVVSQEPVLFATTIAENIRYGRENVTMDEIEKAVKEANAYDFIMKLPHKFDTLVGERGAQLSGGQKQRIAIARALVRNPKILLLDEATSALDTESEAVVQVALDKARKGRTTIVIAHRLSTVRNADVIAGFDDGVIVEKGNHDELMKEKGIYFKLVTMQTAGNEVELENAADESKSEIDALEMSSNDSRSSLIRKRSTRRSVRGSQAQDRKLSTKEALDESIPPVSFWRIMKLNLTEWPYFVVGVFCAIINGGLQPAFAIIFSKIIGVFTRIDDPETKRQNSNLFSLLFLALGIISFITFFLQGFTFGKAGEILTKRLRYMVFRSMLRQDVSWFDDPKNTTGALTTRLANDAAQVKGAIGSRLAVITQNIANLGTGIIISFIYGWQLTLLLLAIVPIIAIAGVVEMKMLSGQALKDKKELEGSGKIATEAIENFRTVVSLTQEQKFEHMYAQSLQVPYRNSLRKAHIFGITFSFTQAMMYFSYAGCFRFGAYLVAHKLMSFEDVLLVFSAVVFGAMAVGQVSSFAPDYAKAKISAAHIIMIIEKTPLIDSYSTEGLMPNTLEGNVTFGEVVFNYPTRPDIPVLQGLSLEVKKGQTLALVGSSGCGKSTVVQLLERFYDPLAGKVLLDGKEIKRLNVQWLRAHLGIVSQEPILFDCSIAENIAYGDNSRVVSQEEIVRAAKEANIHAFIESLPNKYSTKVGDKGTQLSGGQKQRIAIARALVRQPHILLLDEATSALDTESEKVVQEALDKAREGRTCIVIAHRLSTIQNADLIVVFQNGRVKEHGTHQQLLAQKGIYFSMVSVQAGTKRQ

Row | Structure (SMILES) | Brain concentration ([1]; time point 0.5 h) [ng/g] | Kp brain/plasma ([1]; time point 0.5 h) | Kp testes/plasma ([1]; time point 0.5 h) | Plasma concentration ([1]; time point 0.5 h) [ng/mL] | Testes concentration ([1]; time point 0.5 h) [ng/g] | Brain concentration ([1]; time point 2 h) [ng/g] | Kp brain/plasma ([1]; time point 2 h) | Kp testes/plasma ([1]; time point 2 h) | Plasma concentration ([1]; time point 2 h) [ng/mL] | Testes concentration ([1]; time point 2 h) [ng/g] | Brain concentration ([1]; time point 7 h) [ng/g] | Kp brain/plasma ([1]; time point 7 h) | Kp testes/plasma ([1]; time point 7 h) | Plasma concentration ([1]; time point 7 h) [ng/mL] | Testes concentration ([1]; time point 7 h) [ng/g] | brain penetration as indicated by Kp (Cbrain/Cplasma) ([1]; result in words) | MDCKII-MDR1: Efflux Ratio (MDR1 (MDR1-MDCKII cells)) | MDCKII-MDR1: Papp A-B (MDR1 (MDR1-MDCKII cells))
1 | Cc1ccc(-c2noc(CC(O)C(F)F)n2)cc1NC(=O)c1cnc2ccccn12 (stereo not drawn) [Compound I-114] | 106 | 0.07 | 0.17 | 1540 | 256 | 113 | 0.07 | 0.29 | 1680 | 482 | 45.5 | 0.07 | 0.38 | 693 | 248 | do not significantly penetrate the brain or minimally penetrate the brain | 3.67 | 7.8 10^−6 cm/s
2 | COC(=O)N1CC(c2nc(-c3ccc(C(F)F)c(NC(=O)c4cnc5ccccn45)c3)no2)C1 [Compound I-225] |  |  |  |  |  | 506 | 0.15 | 0.33 | 3420 | 1140 |  |  |  |  |  |  | 1.1 | 15.9 10^−6 cm/s
3 | Cc1ccc(-c2noc([C@@H](C)O)n2)cc1NC(=O)c1cnc2ccccn12 [Compound I-270] |  |  |  |  |  | 25.6 | 0.06 | 0.09 | 422 | 39.3 |  |  |  |  |  |  | 1.73 | 17.2 10^−6 cm/s
4 | Cc1ccc(-c2noc([C@H](C)O)n2)cc1NC(=O)c1cnc2ccccn12 [Compound I-271] |  |  |  |  |  | 325 | 0.18 | 0.58 | 1760 | 1020 |  |  |  |  |  |  | 1.36 | 18.5 10^−6 cm/s
5 | Cc1ccc(-c2noc(C3(N)CC4(CC(F)(F)C4)C3)n2)cc1NC(=O)c1cnc2ccccn12 [Compound I-307] |  |  |  |  |  | 82.4 | 0.21 | 1.19 | 389 | 464 |  |  |  |  |  |  | 1.93 | 8.84 10^−6 cm/s
6 | COC(=O)N1CC(c2nc(-c3ccc(Cl)c(NC(=O)c4cnc5ccccn45)c3)no2)C1 [Compound I-339] |  |  |  |  |  | 603 | 0.50 | 0.79 | 1200 | 947 |  |  |  |  |  |  | 0.84 | 22.8 10^−6 cm/s
7 | Cc1ccc(-c2noc([C@H]3CC(F)(F)CN3)n2)cc1NC(=O)c1cnc2ccccn12 [Compound I-359] |  |  |  |  |  | 52.7 | 0.02 | 0.12 | 2950 | 345 |  |  |  |  |  |  | 0.81 | 21.4 10^−6 cm/s
8 | Cc1ccc(-c2noc(C3CC(OCCF)C3)n2)cc1NC(=O)c1cnc2ccccn12 (stereo not drawn) [Compound I-369] |  |  |  |  |  | 1940 | 1.19 | 1.27 | 1630 | 2060 |  |  |  |  |  |  | 0.87 | 24.4 10^−6 cm/s
9 | Cc1ccc(-c2noc(C3(O)CC(F)(F)C3)n2)cc1NC(=O)c1cnc2ccccn12 [Compound I-380] |  |  |  |  |  | 28.2 | 0.06 | 0.09 | 477 | 44.8 |  |  |  |  |  |  | 2.34 | 10.9 10^−6 cm/s
10 | Cc1ccc(-c2noc([C@H]3C[C@@H]3F)n2)cc1NC(=O)c1cnc2ccc(C#N)cn12 [Compound I-384] |  |  |  |  |  | 21.4 | 0.53 | 1.49 | 40.6 | 60.7 |  |  |  |  |  |  | 0.88 | 17.9 10^−6 cm/s
